# Experimental data published in patent publication US20260355196A1, “INHIBITORS AND DEGRADERS OF PIP4K PROTEIN” (Larkspur Biosciences, Inc., priority 2023, published 2026).
# Molecular target: T1, PIP4K2C (Homo sapiens, UniProt Q8TBX8)
# T1 sequence (Q8TBX8 1-421): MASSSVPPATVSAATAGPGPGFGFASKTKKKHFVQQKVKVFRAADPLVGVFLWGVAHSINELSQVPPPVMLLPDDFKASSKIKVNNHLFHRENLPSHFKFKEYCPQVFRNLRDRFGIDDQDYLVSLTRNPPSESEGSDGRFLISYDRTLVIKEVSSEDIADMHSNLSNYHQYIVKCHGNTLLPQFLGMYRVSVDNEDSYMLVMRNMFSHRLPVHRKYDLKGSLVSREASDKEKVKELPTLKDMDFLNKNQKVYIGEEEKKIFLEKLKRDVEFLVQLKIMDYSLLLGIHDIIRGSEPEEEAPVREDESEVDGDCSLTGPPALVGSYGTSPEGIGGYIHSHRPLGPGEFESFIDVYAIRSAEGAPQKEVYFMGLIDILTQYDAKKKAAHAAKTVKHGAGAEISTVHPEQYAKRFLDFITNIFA
# Assay: HiBiT PIP4K2C degradation assay in MOLT-4 cells (endogenous PIP4K2C C-terminally tagged with HiBiT)
# Format: cell-based
# Parameters: untagged in primary human PBMCs and monocyte-derived dendritic cells
# Settings: 6 hours of incubation time, rather than 24 hours; MOLT-4, top concentration 10 micromolar; read-out: HiBIT-degradation MOLT4 PIP4k2C DC50 (6 hours, marked *)
# Excerpt: Example B-2: HiBiT PIP4K2C degradation assay
# Materials: MOLT-4, a human T lymphoblast cell line (see https://www.atcc.org/products/crl-1582, herein incorporated by reference in its entirety), was genetically engineered using CRISPR-Cas9 by Synthego Corporation (Redwood City, CA) to C-terminally tag endogenous PIP4K2C with HiBiT peptide. Following clonal selection, genotype was confirmed by Sanger sequencing. MO LT-4 were maintained using RPMI-1640 medium from Gibco (Grand Island, NY, catalog number 11875-085) supplemented with 10% fetal bovine serum (FBS) from VWR (Philadelphia, PA, catalog number 97068-085). For HiBiT assays the cells were resuspended in RPMI-1640 medium without phenol read from Gibco (Grand Island, NY, catalog number 11835-030) supplemented with 10% FBS. Nano-Glo® HiBiT Lytic Assay System was purchased from Promega (Madison, WI, Catalog number N3030). Cell culture flasks and 384-well microplates were purchased from Corning (Glendale, AZ).
# To study PIP4K2C degradation, 384-well plates were plated with a 10-point dose response curve, 3-fold dilution, in duplicate with a top starting concentration of 10 micromolar. Subsequently 22,500 cells were added to each well and incubated at 37 C in 5% C02 for 24 hours or 6 hours. At the end of the incubation time, cells were treated with the Nano-Glo® HiBiT Lytic Detection System following the manufacturer's instructions. Luminescence was measured with a PHERAstar FSX plate reader (BMG Labtech, Cary, NC). The Levenberg-Marquardt algorithm was used to fit a Hill equation to dose-response data to calculate DC50 values (see Table 6).
row,Compound,DC50 [nM]
1,"O=C1CCC(Nc2ccc(N3CCN(C4CC5(C4)CN(C(=O)O[C@H]4CC[C@H](Nc6ncc(F)c(-c7cccc(-n8ccccc8=O)c7)n6)CC4)C5)CC3)c(F)c2)C(=O)N1 (stereo partly drawn) [Compound 681, trans-4-((5-fluoro-4-(3-(2-oxopyridin-1 (2H)-yl)phenyl)pyrimidin-2-yl)amino)cyclohexyl 6-(4-(4-((2,6-dioxopiperidin-3-yl)amino)-2-fluorophenyl)piperazin-1-yl)-2-azaspiro[3.3]heptane-2-carboxylate]",< 500
2,"O=C1CCC(Nc2ccc(N3CCN(CC4(O)CCN(C(=O)[C@H]5CC[C@H](Nc6ncc(F)c(-c7cccc(-c8ccc[nH]c8=O)c7)n6)CC5)CC4)CC3)c(F)c2)C(=O)N1 (stereo partly drawn) [Compound 584, trans-3-((3-fluoro-4-(4-((1-(4-((5-fluoro-4-(3-(2-oxo-1,2-dihydropyridin-3-yl)phenyl)pyrimidin-2-yl)amino)cyclohexane-1-carbonyl)-4-hydroxypiperidin-4-yl)methyl)piperazin-1-yl)phenyl)amino)piperidine-2,6-dione]",> 5000
3,"O=C1CC[C@H](Nc2ccc(N3CCN([C@H]4CC[C@H](C(=O)N[C@H]5CC[C@H](Nc6ncc(F)c(-c7cccc(-c8ccc[nH]c8=O)c7)n6)CC5)CC4)CC3)c(F)c2)C(=O)N1 [Compound 517, trans-4-(4-(4-(((S)-2,6-dioxopiperidin-3-yl)amino)-2-fluorophenyl)piperazin-1-yl)-N-((trans)-4-((5-fluoro-4-(3-(2-oxo-1,2-dihydropyridin-3-yl)phenyl)pyrimidin-2-yl)amino)cyclohexyl)cyclohexane-1-carboxamide]",< 500

# Now from value to molecule:
row,DC50 [nM],Compound
1,< 500,"O=C1CCC(Nc2ccc(C3CCN(C[C@H]4CC[C@H](C(=O)N5CCC(Nc6ncc(F)c(-c7cccc(N8CCOCC8)c7)n6)CC5)CC4)CC3)c(F)c2)C(=O)N1 (stereo partly drawn) [Compound 671, trans-3-((3-fluoro-4-(1-((4-(4-((5-fluoro-4-(3-morpholinophenyl)pyrimidin-2-yl)amino)piperidine-1-carbonyl)cyclohexyl)methyl)piperidin-4-yl)phenyl)amino)piperidine-2,6-dione]"
2,< 500,"O=C1CCC(Nc2ccc(C3CCN(C[C@H]4CC[C@H](C(=O)N5CCC(Nc6ncc(F)c(-c7cccc(N8CCCCC8=O)c7)n6)CC5)CC4)CC3)c(F)c2)C(=O)N1 (stereo partly drawn) [Compound 685, 3-((3-fluoro-4-(1-((trans-4-(4-((5-fluoro-4-(3-(2-oxopiperidin-1-yl)phenyl)pyrimidin-2-yl)amino)piperidine-1-carbonyl)cyclohexyl)methyl)piperidin-4-yl)phenyl)amino)piperidine-2,6-dione]"
3,< 500,"O=C1CCC(Nc2ccc(N3CCC(N4CCC(NC(=O)[C@H]5CC[C@H](Nc6ncc(F)c(-c7cccc(N8CCOCC8=O)c7)n6)CC5)CC4)C(F)(F)C3)c(F)c2)C(=O)N1 (stereo partly drawn) [Compound 496, trans-N-(1′-(4-((2,6-dioxopiperidin-3-yl)amino)-2-fluorophenyl)-3′,3′-difluoro-[1,4′-bipiperidin]-4-yl)-4-((5-fluoro-4-(3-(3-oxomorpholino)phenyl)pyrimidin-2-yl)amino)cyclohexane-1-carboxamide]"
4,< 500,"O=C1CCC(Nc2ccc(C3CCN(CC4(O)CCN(C(=O)[C@H]5CC[C@H](Nc6ncc(F)c(-c7cccc(N8CCCOC8=O)c7)n6)CC5)CC4)CC3)c(F)c2)C(=O)N1 (stereo partly drawn) [Compound 580, trans-3-((3-fluoro-4-(1-((1-(4-((5-fluoro-4-(3-(2-oxo-1,3-oxazinan-3-yl)phenyl)pyrimidin-2-yl)amino)cyclohexane-1-carbonyl)-4-hydroxypiperidin-4-yl)methyl)piperidin-4-yl)phenyl)amino)piperidine-2,6-dione]"
5,< 500,"O=C1CCC(Nc2ccc(N3CCC(N4CCC(C(=O)N[C@H]5CC[C@H](Nc6ncc(F)c(-c7cccc(N8CCCOC8=O)c7)n6)CC5)CC4)CC3)c(F)c2)C(=O)N1 (stereo partly drawn) [Compound 597, trans-1′-(4-((2,6-dioxopiperidin-3-yl)amino)-2-fluorophenyl)-N-(4-((5-fluoro-4-(3-(2-oxo-1,3-oxazinan-3-yl)phenyl)pyrimidin-2-yl)amino)cyclohexyl)-[1,4′-bipiperidine]-4-carboxamide]"
6,< 500,"O=C1CCC(Nc2ccc(C3CCN(CC4(O)CCC(C(=O)N5CCC(Nc6ncc(F)c(-c7cccc(-n8ccccc8=O)c7)n6)CC5)CC4)CC3)c(F)c2)C(=O)N1 (stereo not drawn) [Compound 680, trans-3-((3-fluoro-4-(1-((4-(4-((5-fluoro-4-(3-(2-oxopyridin-1 (2H)-yl)phenyl)pyrimidin-2-yl)amino)piperidine-1-carbonyl)-1-hydroxycyclohexyl)methyl)piperidin-4-yl)phenyl)amino)piperidine-2,6-dione]"

# Same assay, conditions: 24 hours incubation, MOLT-4, top concentration 10 micromolar; read-out: HiBIT-degradation MOLT4 PIP4k2C 24 hours DC50
row,Compound,DC50 [nM]
1,"O=C1CCC(Nc2ccc(C3CCN(CC(=O)N4CCC5(C4)CN(C(=O)[C@H]4CCC[C@@H](Nc6ncc(Cl)c(-c7cccc(-c8ccc(F)cc8)c7)n6)C4)C5)CC3)c(F)c2)C(=O)N1 (relative stereo) [Compound 284, cis-3-((4-(1-(2-(2-(3-((5-chloro-4-(4′-fluoro-[1,1′-biphenyl]-3-yl)pyrimidin-2-yl)amino)cyclohexane-1-carbonyl)-2,6-diazaspiro[3.4]octan-6-yl)-2-oxoethyl)piperidin-4-yl)-3-fluorophenyl)amino)piperidine-2,6-dione]",< 500
2,"O=C1CCC(Nc2ccc(C3CCN(CC4CCN(CC(=O)N5CCC(Nc6ncc(F)c(-c7cccc(-n8ccccc8=O)c7)n6)CC5)CC4)CC3)c(F)c2)C(=O)N1 (stereo not drawn) [Compound 314, 3-((3-fluoro-4-(1-((1-(2-(4-((5-fluoro-4-(3-(2-oxopyridin-1(2H)-yl)phenyl)pyrimidin-2-yl)amino)piperidin-1-yl)-2-oxoethyl)piperidin-4-yl)methyl)piperidin-4-yl)phenyl)amino)piperidine-2,6-dione]",< 500
3,"O=C1CCC(Nc2ccc(N3CCN([C@H]4CC[C@H](C(=O)N[C@H]5CC[C@H](Nc6ncc(F)c(-c7cccc(-n8ccccc8=O)c7)n6)CC5)CC4)CC3)c(F)c2)C(=O)N1 (stereo partly drawn) [Compound 319, trans-trans-4-(4-(4-((2,6-dioxopiperidin-3-yl)amino)-2-fluorophenyl)piperazin-1-yl)-N-(4-((5-fluoro-4-(3-(2-oxopyridin-1(2H)-yl)phenyl)pyrimidin-2-yl)amino)cyclohexyl)cyclohexane-1-carboxamide]",< 500
4,"O=C1CCC(N2Cc3cc(OC4CCN(CCN5CCC(C(=O)N6CCC(Nc7ncc(Cl)c(-c8cccc(-c9ccccc9)c8)n7)CC6)CC5)CC4)ccc3C2=O)C(=O)N1 (stereo not drawn) [Compound 89, 3-(5-((1-(2-(4-(4-((4-([1,1′-biphenyl]-3-yl)-5-chloropyrimidin-2-yl)amino)piperidine-1-carbonyl)piperidin-1-yl)ethyl)piperidin-4-yl)oxy)-1-oxoisoindolin-2-yl)piperidine-2,6-dione]",< 500
5,"Cn1c(=O)n(C2CCC(=O)NC2=O)c2ccc(C3CCN(CCC4CCN(C(=O)[C@H]5CCC[C@@H](Nc6ncc(Cl)c(-c7cccc(-c8ccccc8)c7)n6)C5)CC4)CC3)cc21 (relative stereo) [Compound 52, cis-3-(5-(1-(2-(1-(3-((4-([1,1′-biphenyl]-3-yl)-5-chloropyrimidin-2-yl)amino)cyclohexane-1-carbonyl)piperidin-4-yl)ethyl)piperidin-4-yl)-3-methyl-2-oxo-2,3-dihydro-1H-benzo[d]imidazol-1-yl)piperidine-2,6-dione]",< 500

# Same assay, conditions: read-out: HiBIT-degradation MOLT4 PIP4k2C DC50 (6 hours, marked *); 6 hours of incubation time, rather than 24 hours; MOLT-4, top concentration 10 micromolar
row,Compound,DC50 [nM]
1,"Cn1nc(C2CCC(=O)NC2=O)c2ccc(N3CCN(CC4(O)CCN(C(=O)O[C@H]5CC[C@H](Nc6ncc(F)c(-c7cccc(-c8ccccc8)c7)n6)CC5)CC4)CC3)cc21 (stereo partly drawn) [Compound 642, trans-4-((4-([1,1′-biphenyl]-3-yl)-5-fluoropyrimidin-2-yl)amino)cyclohexyl 4-((4-(3-(2,6-dioxopiperidin-3-yl)-1-methyl-1H-indazol-6-yl)piperazin-1-yl)methyl)-4-hydroxypiperidine-1-carboxylate]",< 500
